Source: patent publication US10435399B2, “HDAC6 inhibitory heterocyclic compound” (TAKEDA PHARMACEUTICAL COMPANY LIMITED, priority 2017, dated 2019)

Molecular target: T1, HDAC6 enzyme (Homo sapiens, UniProt Q9UBN7)
T1 construct: transducing full length HDAC6 gene into Sf-9 insect cells; GST; purchased SignalChem; host or cells: Sf-9 insect cells
T1 sequence (Q9UBN7 1-1215): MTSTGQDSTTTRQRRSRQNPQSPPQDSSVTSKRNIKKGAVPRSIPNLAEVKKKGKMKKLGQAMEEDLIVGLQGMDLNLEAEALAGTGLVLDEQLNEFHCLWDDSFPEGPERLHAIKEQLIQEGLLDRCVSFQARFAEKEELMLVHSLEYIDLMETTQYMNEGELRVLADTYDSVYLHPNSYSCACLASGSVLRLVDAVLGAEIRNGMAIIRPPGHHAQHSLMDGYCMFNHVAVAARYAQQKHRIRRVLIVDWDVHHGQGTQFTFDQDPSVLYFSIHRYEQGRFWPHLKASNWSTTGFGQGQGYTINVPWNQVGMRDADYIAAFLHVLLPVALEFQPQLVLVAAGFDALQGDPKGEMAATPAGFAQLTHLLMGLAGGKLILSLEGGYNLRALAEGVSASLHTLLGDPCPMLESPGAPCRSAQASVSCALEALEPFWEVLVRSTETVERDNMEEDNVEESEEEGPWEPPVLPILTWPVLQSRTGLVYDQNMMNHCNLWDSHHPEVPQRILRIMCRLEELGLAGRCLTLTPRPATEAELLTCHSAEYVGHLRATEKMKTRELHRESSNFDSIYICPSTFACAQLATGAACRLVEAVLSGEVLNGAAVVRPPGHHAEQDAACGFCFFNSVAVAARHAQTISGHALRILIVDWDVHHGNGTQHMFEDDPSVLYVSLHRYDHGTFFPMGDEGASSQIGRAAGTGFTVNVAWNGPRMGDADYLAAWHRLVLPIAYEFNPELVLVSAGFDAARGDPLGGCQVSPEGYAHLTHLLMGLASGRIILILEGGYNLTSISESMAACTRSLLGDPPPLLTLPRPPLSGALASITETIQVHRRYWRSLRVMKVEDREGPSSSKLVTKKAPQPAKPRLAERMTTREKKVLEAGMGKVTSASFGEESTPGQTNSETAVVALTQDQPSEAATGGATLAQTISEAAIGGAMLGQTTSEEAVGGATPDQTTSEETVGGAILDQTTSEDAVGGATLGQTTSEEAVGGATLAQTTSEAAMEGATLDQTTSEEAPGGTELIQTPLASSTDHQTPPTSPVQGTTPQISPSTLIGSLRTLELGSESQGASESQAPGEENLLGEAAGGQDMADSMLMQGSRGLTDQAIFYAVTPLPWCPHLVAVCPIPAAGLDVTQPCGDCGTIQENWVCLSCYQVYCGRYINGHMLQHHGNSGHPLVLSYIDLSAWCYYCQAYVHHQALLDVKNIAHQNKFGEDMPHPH
Experiment: HDAC6 enzyme inhibitory activity (HDAC-Glo I/II Assay kit)
Type: biochemical
Settings: 10 μM; wells without enzyme = 100% inhibition; read-out: HDAC6 inhibitory rate (%) (10 μM)
Procedure, shortened: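 Luminescent HDAC-Glo I/II readout after 20 min room-temperature reaction with substrate-developer, following 60 min compound–enzyme preincubation. Enzyme: full-length HDAC6 from Sf-9 cells, GST-purified; buffer 24 mM Tris-HCl pH 7.5, 0.01% Tween-20, glutathione, salts. Wells lacking enzyme define 100% inhibition.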

Row | Compound | inhibition at 10 µM [%]
1 | O=C1c2cc(-c3nnc(C(F)F)o3)ccc2CN1C1(C(=O)NCC(F)(F)F)CC1 [Example 187, 1-(6-(5-(difluoromethyl)-1,3,4-oxadiazol-2-yl)-1-oxo-1,3-dihydro-2H-isoindol-2-yl)-N-(2,2,2-trifluoroethyl)cyclopropanecarboxamide] | 92
2 | CCC(=O)N[C@@H]1COCC[C@H]1N1Cc2c(F)cc(-c3nnc(C(F)F)o3)cc2C1=O [Example 191, N-((3S,4R)-4-(6-(5-(difluoromethyl)-1,3,4-oxadiazol-2-yl)-4-fluoro-1-oxo-1,3-dihydro-2H-isoindol-2-yl)tetrahydro-2H-pyran-3-yl)propanamide] | 101
3 | O=C1c2cc(-c3nnc(C(F)F)o3)cc(F)c2CN1C[C@H]1COCCN1S(=O)(=O)C1CC1 [Example 197, 2-(((3S)-4-(cyclopropylsulfonyl)morpholin-3-yl)methyl)-6-(5-(difluoromethyl)-1,3,4-oxadiazol-2-yl)-4-fluoroisoindolin-1-one] | 100
4 | Cc1ccc(S(=O)(=O)N2CCOC[C@@H]2CN2Cc3c(F)cc(-c4nnc(C(F)F)o4)cc3C2=O)cc1 [Example 198, 6-(5-(difluoromethyl)-1,3,4-oxadiazol-2-yl)-4-fluoro-2-(((3S)-4-((4-methylphenyl)sulfonyl)morpholin-3-yl)methyl)isoindolin-1-one] | 99
5 | O=C1c2cc(-c3nnc(C(F)F)o3)cc(F)c2CN1C[C@H]1COCCN1S(=O)(=O)CC(F)(F)F [Example 199, 6-(5-(difluoromethyl)-1,3,4-oxadiazol-2-yl)-4-fluoro-2-(((3S)-4-((2,2,2-trifluoroethyl)sulfonyl)morpholin-3-yl)methyl)isoindolin-1-one] | 100
6 | O=C1c2cc(-c3nnc(C(F)F)o3)cc(F)c2CN1[C@@H]1CCOC[C@H]1NC(=O)C(F)(F)C(F)(F)F [Example 200, N-((3S,4R)-4-(6-(5-(difluoromethyl)-1,3,4-oxadiazol-2-yl)-4-fluoro-1-oxo-1,3-dihydro-2H-isoindol-2-yl)tetrahydro-2H-pyran-3-yl)-2,2,3,3,3-pentafluoropropanamide] | 100
7 | O=C1c2cc(-c3nnc(C(F)F)o3)cc(F)c2CN1[C@@H]1CCOC[C@H]1NC(=O)C1(C(F)(F)F)CC1 [Example 201, N-((3S,4R)-4-(6-(5-(difluoromethyl)-1,3,4-oxadiazol-2-yl)-4-fluoro-1-oxo-1,3-dihydro-2H-isoindol-2-yl)tetrahydro-2H-pyran-3-yl)-1-(trifluoromethyl)cyclopropanecarboxamide] | 101
8 | CC(C)(C(=O)N[C@@H]1COCC[C@H]1N1Cc2c(F)cc(-c3nnc(C(F)F)o3)cc2C1=O)C(F)(F)F [Example 202, N-((3S,4R)-4-(6-(5-(difluoromethyl)-1,3,4-oxadiazol-2-yl)-4-fluoro-1-oxo-1,3-dihydro-2H-isoindol-2-yl)tetrahydro-2H-pyran-3-yl)-3,3,3-trifluoro-2,2-dimethylpropanamide] | 101
9 | CCC(F)(F)C(=O)N[C@@H]1COCC[C@H]1N1Cc2c(F)cc(-c3nnc(C(F)F)o3)cc2C1=O [Example 203, N-((3S,4R)-4-(6-(5-(difluoromethyl)-1,3,4-oxadiazol-2-yl)-4-fluoro-1-oxo-1,3-dihydro-2H-isoindol-2-yl)tetrahydro-2H-pyran-3-yl)-2,2-difluorobutanamide] | 100
10 | CCC(F)(F)C(=O)N[C@@H]1CCOC[C@H]1N1Cc2c(F)cc(-c3nnc(C(F)F)o3)cc2C1=O [Example 204] | 100
11 | O=C1c2cc(-c3nnc(C(F)F)o3)cc(F)c2CN1[C@@H]1COCC[C@H]1NC(=O)C1(C(F)(F)F)CCC1 [Example 205, N-((3S,4R)-3-(6-(5-(difluoromethyl)-1,3,4-oxadiazol-2-yl)-4-fluoro-1-oxo-1,3-dihydro-2H-isoindol-2-yl)tetrahydro-2H-pyran-4-yl)-1-(trifluoromethyl)cyclobutanecarboxamide] | 101

Now from value to compound:

Row | inhibition at 10 µM [%] | Compound
12 | 101 | O=C1c2cc(-c3nnc(C(F)F)o3)cnc2CN1[C@@H]1CCCC[C@H]1N1C(=O)c2ccccc2C1=O [Example 186, 2-((1R,2R)-2-(3-(5-(difluoromethyl)-1,3,4-oxadiazol-2-yl)-5-oxo-5,7-dihydro-6H-pyrrolo[3,4-b]pyridin-6-yl)cyclohexyl)-H-isoindole-1,3(2H)-dione]
13 | 98 | Cn1cc(-c2ccccc2)c(N2Cc3ccc(-c4nnc(C(F)F)o4)cc3C2=O)n1 [Example 188, 6-(5-(difluoromethyl)-1,3,4-oxadiazol-2-yl)-2-(1-methyl-4-phenyl-1H-pyrazol-3-yl)isoindolin-1-one]
14 | 100 | O=C(N[C@@H]1COCC[C@H]1N1Cc2c(F)cc(-c3nnc(C(F)F)o3)cc2C1=O)c1ccccc1Cl [Example 189, 2-chloro-N-((3S,4R)-4-(6-(5-(difluoromethyl)-1,3,4-oxadiazol-2-yl)-4-fluoro-1-oxo-1,3-dihydro-2H-isoindol-2-yl)tetrahydro-2H-pyran-3-yl)benzamide]
15 | 100 | O=C(N[C@@H]1COCC[C@H]1N1Cc2c(F)cc(-c3nnc(C(F)F)o3)cc2C1=O)c1cccc(Cl)c1 [Example 190, 3-chloro-N-((3S,4R)-4-(6-(5-(difluoromethyl)-1,3,4-oxadiazol-2-yl)-4-fluoro-1-oxo-1,3-dihydro-2H-isoindol-2-yl)tetrahydro-2H-pyran-3-yl)benzamide]
16 | 100 | CC(C)(C)OC(=O)N1CC[C@@H](N2Cc3ncc(-c4nnc(C(F)F)o4)cc3C2=O)[C@@H](c2ccccc2)C1 [Example 192, tert-butyl (3S,4R)-4-(3-(5-(difluoromethyl)-1,3,4-oxadiazol-2-yl)-5-oxo-5,7-dihydro-6H-pyrrolo[3,4-b]pyridin-6-yl)-3-phenylpiperidine-1-carboxylate]
17 | 102 | O=C1c2cc(-c3nnc(C(F)F)o3)cnc2CN1[C@@H]1CCNC[C@@H]1c1ccccc1 [Example 193, 3-(5-(difluoromethyl)-1,3,4-oxadiazol-2-yl)-6-((3S,4R)-3-phenylpiperidin-4-yl)-6,7-dihydro-5H-pyrrolo[3,4-b]pyridin-5-one]
18 | 100 | COC(=O)N1CC[C@@H](N2Cc3ncc(-c4nnc(C(F)F)o4)cc3C2=O)[C@@H](c2ccccc2)C1 [Example 194, methyl (3S,4R)-4-(3-(5-(difluoromethyl)-1,3,4-oxadiazol-2-yl)-5-oxo-5,7-dihydro-6H-pyrrolo[3,4-b]pyridin-6-yl)-3-phenylpiperidine-carboxylate]
19 | 100 | CCC(F)(F)C(=O)N[C@@H]1CCCC[C@H]1N1Cc2ncc(-c3nnc(C(F)F)o3)cc2C1=O [Example 195, N-((1R,2R)-2-(3-(5-(difluoromethyl)-1,3,4-oxadiazol-2-yl)-5-oxo-5,7-dihydro-6H-pyrrolo[3,4-b]pyridin-6-yl)cyclohexyl)-2,2-difluorobutanamide]
20 | 100 | O=C1c2cc(-c3nnc(C(F)F)o3)cnc2CN1[C@@H]1CCCC[C@H]1NC(=O)C(F)(F)C(F)(F)F [Example 196, N-((1R,2R)-2-(3-(5-(difluoromethyl)-1,3,4-oxadiazol-2-yl)-5-oxo-5,7-dihydro-6H-pyrrolo[3,4-b]pyridin-6-yl)cyclohexyl)-2,2,3,3,3-pentafluoropropanamide]
21 | 100 | Cn1ccc(-c2ccccc2N2Cc3ccc(-c4nnc(C(F)F)o4)cc3C2=O)n1 [Example 206, 6-(5-(difluoromethyl)-1,3,4-oxadiazol-2-yl)-2-(2-(1-methyl-1H-pyrazol-3-yl)phenyl)isoindolin-1-one]
22 | 100 | Cn1cc(-c2ccccc2N2Cc3ccc(-c4nnc(C(F)F)o4)cc3C2=O)cn1 [Example 207, 6-(5-(difluoromethyl)-1,3,4-oxadiazol-2-yl)-2-(2-(1-methyl-1H-pyrazol-4-yl)phenyl)isoindolin-1-one]
23 | 100 | O=C1c2cc(-c3nnc(C(F)F)o3)ccc2CN1c1ccccc1-c1cccnc1 [Example 208, 6-(5-(difluoromethyl)-1,3,4-oxadiazol-2-yl)-2-(2-(pyridin-3-yl)phenyl)isoindolin-1-one]
